Test results published in patent US20260183322A1, “BORON-BASED ENOLASE LIGANDS AND METHODS OF USE FOR TREATMENT OF CANCER” (LOMA LINDA UNIVERSITY, priority 2022, published 2026).

What was measured:
Assay type in all cases: cell-based
[1] = test system: parental and DR cell lines (PC3 and DU145); assay: Cytotoxic activity in parental and DR prostate cancer cell lines; details: for cytotoxic activity (anti-cancer effects): general statement; for cytotoxicity compared with the other compounds of the ten: in vitro cytotoxicity and anti-proliferative data in docetaxel resistant PCa cell lines; for cell viability: parental and DR cell lines (PC3 and DU145)
Excerpt: Out of the initial ten compounds, two target-to-hit specific ligands were identified, BT-768 and BT-772, from the diazaborine-based pharmacophore group and 2-Chloro substituted acetamide derivatives. BT-768 and BT-772 were selected for further studies based on their in vitro cytotoxicity and anti-proliferative data in docetaxel resistant PCa cell lines (see FIG. 3A and FIG. 3B, and FIG. 4A and FIG. 4B). […] The boron-based ligands BT-768 and BT-772 cytotoxic activity in parental and DR cell lines (PC3 and DU145) were then measured.
(§1) FIG. 3A and FIG. 3B, for example, are graphical representations of 3-(4,5-dimethylthiazol-2-yl)-2,5-diphenyl-2H-tetrazolium bromide MTT assay-based dose response curve for the ligand BT-772. FIG. 3A and FIG. 3B represent the average of three independent experiments in triplicates normalized to untreated control assays. As shown in FIG. 3A and FIG. 3B, cell viability was measured by MTT assay. In FIG. 3A, PC3 and PC3-DR cells were treated with increasing concentrations of BT-772 for twenty-four hours.
(§2) In FIG. 3B, DU145 and DU145-DR cells were treated with increasing concentrations of BT-772 for twenty-four hours.

DU145 cells = assay: Clonogenic assay, DU145; details: DU145 cells growing as colonies
Description: (§3) FIG. 4B is a photographic image of a clonogenic assay-based dose response for the ligand BT-772 in the DU145 and DU145-DR cell lines, in accordance with an embodiment of the disclosure.
(§4) FIG. 4A and FIG. 4B, for example, show images of clonogenic assays, used primarily to determine cancer cell colony formation capacity and proliferation. In FIG. 4A, PC3 and PC3-DR cells were grown at low density in 6-well plates and allowed to form clones for 10 days.
(§5) In FIG. 4B, DU145 and DU145-DR cells growing as colonies were treated with low micromolar concentrations of BT-772 and clonogenicity was noticeable inhibited at concentrations above 3 μM in DU145 cells and at concentrations above 1 μM in DU145-DR cells.

PC3-DR cells = assay: Clonogenic assay, PC3-DR; details: 6-well plates, 10 days
Description: FIG. 4A is a photographic image of a clonogenic assay-based dose response for the ligand BT-772 in the PC3 and PC3-DR cell lines, in accordance with an embodiment of the disclosure.
as §4

[2] = test system: PC3-DR (taxane resistant variant of PC3); assay: MTT assay cell viability, PC3-DR; details: PC3-DR cells, twenty-four hours, read-out: IC50 (drug concentration causing 50% inhibition), cytotoxic activity
Excerpt: (§6) FIG. 3A is a graphical representation of 3-(4,5-dimethylthiazol-2-yl)-2,5-diphenyl-2H-tetrazolium bromide (MTT) assay-based dose response curve for the ligand BT-772 in the PC3 prostate cancer cell line and its taxane resistant variant PC3-DR, in accordance with an embodiment of the disclosure.
as §1

[3] = test system: DU145-DR (taxane resistant variant of DU145); assay: MTT assay cell viability, DU145-DR; details: Homo sapiens, DU-145, DU145-DR cells, twenty-four hours, read-out: IC50, cytotoxic activity
Excerpt: (§7) FIG. 3B is a graphical representation of 3-(4,5-dimethylthiazol-2-yl)-2,5-diphenyl-2H-tetrazolium bromide MTT assay-based dose response curve for the ligand BT-772 in the DU145 prostate cancer cell line and its taxane resistant variant DU145-DR, in accordance with an embodiment of the disclosure.
as §1, §2

[4] = test system: DU145 prostate cancer cell line; assay: MTT assay cell viability, DU145; details: Homo sapiens, DU-145, DU145 cells, twenty-four hours, read-out: IC50, cytotoxic activity
Excerpt: as §7, §1, §2

DU145-DR cells = assay: Clonogenic assay, DU145-DR; details: DU145-DR cells growing as colonies
Description: as §3, §4, §5

[5] = test system: PC3 prostate cancer cell line; assay: MTT assay cell viability, PC3; details: Homo sapiens, PC-3, PC3 cells, twenty-four hours, read-out: IC50 (drug concentration causing 50% inhibition), cytotoxic activity
Excerpt: as §6, §1

| Compound | cytotoxic activity (anti-cancer effects) [1] | cytotoxicity compared with the other compounds of the ten [1] | cell viability [1] | concentration above which clonogenicity was noticeably inhibited (DU145 cells) | concentration above which clonogenicity was noticeably inhibited (PC3-DR cells) | IC50 [2] [µM] | IC50 [3] [µM] | IC50 [4] [µM] | concentration above which clonogenicity was noticeably inhibited (DU145-DR cells) | IC50 [5] [µM] |
| --- | --- | --- | --- | --- | --- | --- | --- | --- | --- | --- |
| N#Cc1ccc(B2Nc3ccccc3-c3nc4ccccc4n32)s1 [BT-768, 5-(benzo[e]benzo[4,5]imidazo[1,-c][1,3,2]diazaborinin-6 (5H)-yl)thiopene-2-carbonitrile] | low μM cytotoxic activity | higher cytotoxic than the other eight compounds | dose-dependent reduction in cell viability | – | – | – | – | – | – | – |
| Cc1ccc(CN(C(=O)CCl)c2cccc(B3OC(C)(C)C(C)(C)O3)c2)cc1 [BT-772, 2-chloro-N-(4-methylbenzyl)-N-(3-(4,4,5,5-tetramethyl-1,3,2-dioxaborolan-2-yl)phenyl) acetamide] | low μM cytotoxic activity | higher cytotoxic than the other eight compounds | dose-dependent reduction in cell viability | above 3 μM | above 3 M | 5 to 10 | 5 to 10 | 5 to 10 | above 1 μM | 5 to 10 |
